{
  "source": "patent US20080194609A1",
  "about": "“Chemical Compound and Its Use” (Bayer HeathCare AG, priority 2004, published 2008)",
  "key": {"[1]": {"target": "T1, CETP (enriched CETP fraction obtained from human plasma) (Homo sapiens, UniProt P11597)", "T1 construct": "CETP is obtained in partially purified form from human plasma; from tissue; host or cells: human plasma (d>1.21 g/ml bottom fraction; Phenyl-Sepharose, CM-Sepharose, Mono Q)", "T1 sequence (P11597 18-493)": "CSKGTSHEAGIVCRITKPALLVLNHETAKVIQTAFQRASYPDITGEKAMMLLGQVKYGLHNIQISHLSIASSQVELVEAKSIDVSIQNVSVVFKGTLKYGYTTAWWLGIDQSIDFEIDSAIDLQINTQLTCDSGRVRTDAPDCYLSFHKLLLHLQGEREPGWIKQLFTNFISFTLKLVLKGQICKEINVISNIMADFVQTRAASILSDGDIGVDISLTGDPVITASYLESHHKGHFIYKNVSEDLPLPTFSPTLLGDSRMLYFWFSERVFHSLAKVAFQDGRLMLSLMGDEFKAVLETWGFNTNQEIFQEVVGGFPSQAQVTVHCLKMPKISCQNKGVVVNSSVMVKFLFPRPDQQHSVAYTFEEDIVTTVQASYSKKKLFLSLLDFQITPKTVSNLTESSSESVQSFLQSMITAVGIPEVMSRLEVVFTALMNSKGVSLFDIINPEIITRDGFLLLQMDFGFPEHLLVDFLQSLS", "assay": "CETP fluorescence test with enriched CETP", "format": "biochemical", "conditions": "37° C., 4 hours, CE transfer between liposomes", "procedure": "(§1) CETP is obtained in partially purified form from human plasma by differential centrifugation and column chromatography and used for the test. To this end, human plasma is adjusted to a density of 1.21 g per ml using NaBr and centrifuged at 4° C. at 50 000 rpm for 18 h. The bottom fraction (d>1.21 g/ml) is applied to a Sephadex® Phenyl-Sepharose 4B (Pharmacia) column, washed with 0.15 M NaCl/0.001 M tris-HCl pH 7.4 and then eluted with distilled water. The CETP-active fractions are pooled, dialyzed against 50 mM sodium acetate pH 4.5 and applied to a CM-Sepharose® column (Pharmacia). The mixture is then eluted using a linear gradient (0-1 M NaCl). The pooled CETP fractions are dialyzed against 10 mM tris/HCl pH 7.4 and then further purified by chromatography on a Mono Q® column (Pharmacia).\nMeasurement of the CETP-catalyzed transfer of a fluorescent cholesterol ester between liposomes [modified according to the procedure of Bisgaier et al., J. Lipid Res. 34, 1625 (1993)]: […]\nThe change in the fluorescence at 485/535 nm is a measure of the CE transfer; the inhibition of the transfer in comparison to the control batch without substance is determined. […]"}, "CETP [2]": {"target": "T2, CETP (Homo sapiens, UniProt P11597)", "T2 sequence (P11597 18-493)": "T1 sequence (P11597 18-493)", "assay": "CETP-SPA test", "format": "biochemical", "parameters": "CETP is obtained in partially purified form from human plasma; from tissue; host or cells: human plasma (d>1.21 g/ml bottom fraction; Phenyl-Sepharose, CM-Sepharose, Mono Q)", "conditions": "transfer of 3H-cholesterol ester from human HDL to biotinylated LDL, 37° C., 18 h", "procedure": "as §1\n50 ml of fresh human EDTA plasma is adjusted to a density of 1.12 using NaBr and centrifuged at 4° C. in a Ty 65 rotor at 50 000 rpm for 18 h. The upper phase is used for the obtainment of cold LDL. […]\nFor testing of the CETP activity, the transfer of ^3H-cholesterol ester from human HD lipoproteins to biotinylated LD lipoproteins is measured. The reaction is ended by addition of streptavidin-SPA® beads (Amersham) and the transferred radioactivity is determined directly in a liquid scintillation counter. […]"}, "CETP in human plasma": {"target": "T3, CETP in human plasma (Homo sapiens, UniProt P11597)", "T3 construct": "tissue Sigma P9523; host or cells: human plasma (purchased, unfractionated)", "T3 sequence (P11597 18-493)": "T1 sequence (P11597 18-493)", "assay": "CETP fluorescence test with human plasma", "format": "biochemical", "conditions": "86% v/v human plasma, 37° C., 24 h", "procedure": "For the production of the donor liposomes, 1 mg of cholesteryl 4,4-difluoro-5,7-dimethyl-4-bora-3a,4a-diaza-s-indacene-3-dodecanoate (cholesteryl BODIPY® FL C1-2, Molecular Probes) is dissolved in 600 μl of dioxane with 5.35 mg of triolein and 6.67 mg of phosphatidylcholine with gentle warming in an ultrasonic bath and this solution is added very slowly with ultrasonication to 63 ml of 50 mM tris/HCl, 150 mM NaCl, 2 mM EDTA buffer pH 7.3 at room temperature. The suspension is then ultrasonicated under an N2 atmosphere for 30 minutes in the Branson ultrasonic bath at about 50 watts, the temperature being kept at about 20° C.\n6 μl (12% v/v) of donor liposomes and 1 μl (2% v/v) of a solution of the substance to be investigated in DMSO are added to 42 μl (86% v/v) of human plasma (Sigma P9523), and the mixture is incubated at 37° C. for 24 h.\nThe change in the fluorescence at 510/520 nm (gap width 2.5 nm) is a measure of the CE transfer; the inhibition of the transfer in comparison to the control batch without substance is determined. […]"}, "CETP [3]": {"target": "T2, CETP", "assay": "Ex vivo activity on transgenic hCETP mice (CETP activity in the serum)", "parameters": "from tissue; host or cells: serum of transgenic hCETP mice (host Mus musculus) after oral dosing", "conditions": "mouse, 3 mg/kg oral, cholesteryl ester transport", "procedure": "10 μl of buffer and 2 μl of serum are added to 80 μl of test mix, and the mixture is incubated at 37° C. for 4 h.\nThe change in the fluorescence at 485/535 nm is a measure for the CE transfer; the inhibition of the transfer in comparison to the control batch without substance is determined.\nTo test for CETP-inhibitory activity, the substances are administered orally using a stomach tube to transgenic hCETP mice bred in-house [Dinchuk et al. BBA 1295-301 (1995)]. To this end, male animals are randomly assigned to groups having an equal number of animals, as a rule n=4, one day before the start of the experiment. Before administration of the substance, blood is taken from each mouse by puncture of the retro-orbital venous plexus for the determination of its basal CETP activity in the serum (T1). The test substance is then administered to the animals using the stomach tube. […]\nAfter termination of the clotting, the blood samples are centrifuged and the serum is removed by pipette. For the determination of the CETP activity, the cholesteryl ester transport over 4 h is determined. […]\nThe differences in the cholesteryl ester transport [pM CE/h (T2)−pM CE/h (T1)] are calculated for each animal and averaged in the groups. […]"}},
  "note": "Where two headings read alike, the source gives them in different places.",
  "data": [
    {"molecule": "O[C@H]1CC2(CC2)Cc2nc(C3CCCC3)c([C@@H](F)c3ccc(C(F)(F)F)cc3)c(C3CCCC3)c21", "note": "[Example 1]", "values": [
      {"measurement": "IC50", "setting": "[1]", "value": 15, "unit": "nM"},
      {"measurement": "IC50", "setting": "CETP [2]", "value": 24, "unit": "nM"},
      {"measurement": "IC50", "setting": "CETP in human plasma", "value": 40, "unit": "nM"}
    ]},
    {"molecule": "O[C@H]1CC2(CC2)Cc2nc(C3CCCC3)c([C@@H](F)c3ccc(C(F)(F)F)cc3)c(C3CCCCC3)c21", "note": "[Example 1]", "values": [
      {"measurement": "inhibition at 3 mg/kg", "setting": "CETP [3]; serum taken 16 h after administration, read-out: % inhibition at 3 mg/kg 16 h", "value": 74, "unit": "%"},
      {"measurement": "inhibition at 3 mg/kg", "setting": "CETP [3]; serum taken 24 h after administration, read-out: % inhibition at 3 mg/kg 24 h", "value": 66, "unit": "%"},
      {"measurement": "IC50", "setting": "[1]", "value": 17, "unit": "nM"},
      {"measurement": "IC50", "setting": "CETP [2]", "value": 32, "unit": "nM"},
      {"measurement": "IC50", "setting": "CETP in human plasma", "value": 80, "unit": "nM"}
    ]}
  ]
}
